Source: patent US20240199546A1, “INHIBITORS OF SOLUTE CARRIER FAMILY 6A MEMBER 19 (SLC6A19) AND METHODS OF USE THEREOF” (Maze Therapeutics, Inc., priority 2022, published 2024)

Target: T1, human SLC6A19 and TMEM27 (Homo sapiens, UniProt Q695T7)
T1 construct: expressed in transfected cells
T1 sequence (Q695T7 1-634): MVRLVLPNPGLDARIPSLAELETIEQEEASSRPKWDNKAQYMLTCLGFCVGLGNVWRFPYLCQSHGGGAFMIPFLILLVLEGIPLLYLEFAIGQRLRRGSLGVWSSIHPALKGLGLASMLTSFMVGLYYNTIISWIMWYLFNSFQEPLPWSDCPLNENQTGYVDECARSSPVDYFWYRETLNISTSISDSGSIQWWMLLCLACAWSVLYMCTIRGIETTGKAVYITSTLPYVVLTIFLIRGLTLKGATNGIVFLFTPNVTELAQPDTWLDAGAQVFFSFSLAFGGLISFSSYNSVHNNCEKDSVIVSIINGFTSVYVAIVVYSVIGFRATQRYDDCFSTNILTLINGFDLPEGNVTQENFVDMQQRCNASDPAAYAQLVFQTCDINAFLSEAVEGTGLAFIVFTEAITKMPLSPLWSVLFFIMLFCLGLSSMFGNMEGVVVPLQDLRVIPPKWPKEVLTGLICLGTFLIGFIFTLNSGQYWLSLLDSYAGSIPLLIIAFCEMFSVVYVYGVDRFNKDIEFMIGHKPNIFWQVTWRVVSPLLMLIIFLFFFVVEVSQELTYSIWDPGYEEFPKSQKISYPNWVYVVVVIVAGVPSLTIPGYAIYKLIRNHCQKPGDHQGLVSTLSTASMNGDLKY
T1 sequence (Q9HBJ8 15-222 partner): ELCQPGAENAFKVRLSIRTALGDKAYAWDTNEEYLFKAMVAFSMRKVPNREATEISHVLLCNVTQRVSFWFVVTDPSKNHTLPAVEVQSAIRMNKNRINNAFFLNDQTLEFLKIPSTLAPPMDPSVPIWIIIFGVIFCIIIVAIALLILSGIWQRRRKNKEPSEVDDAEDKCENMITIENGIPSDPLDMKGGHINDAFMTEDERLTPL
Test: Radiolabelled (3H) leucine uptake in CHO cells with doxycycline-inducible expression of human SLC6A19 and TMEM27 (Example B-1)
Format: cell-based
Conditions: CHO cells with doxycycline-inducible expression of human SLC6A19 and TMEM27, read-out: SLC6A19_Radioligand Uptake Assay IC50
Procedure, shortened: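 CHO cells were induced with doxycycline for 18 h at 37 °C, washed in HBSS, then exposed to compounds for 1 h: 8-point, 3-fold dilutions in duplicate, 0.5% DMSO final. Uptake measured by scintillation counting after 2 h shaking. Activity normalized with positive control as 0% and DMSO as 100%.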

SMILES | IC50
Cc1cc(COc2cc3[nH]c(CNC(=O)C4(F)CC4)cc3cc2F)on1 [Compound 572, 1-fluoro-N-((5-fluoro-6-((3-methylisoxazol-5-yl)methoxy)-1H-indol-2-yl)methyl)cyclopropane-1-carboxamide] | 113 nM
Cc1cc(COc2cc3[nH]c(CNC(=O)[C@H]4CCN4C)cc3cc2Cl)on1 [Compound 575, (R)-N-((5-chloro-6-((3-methylisoxazol-5-yl)methoxy)-1H-indol-2-yl)methyl)-1-methylazetidine-2-carboxamide] | 3050 nM
Cc1cc(COc2cc3[nH]c(CNC(=O)[C@@H]4CCN4C)cc3cc2Cl)on1 [Compound 576, (S)-N-((5-chloro-6-((3-methylisoxazol-5-yl)methoxy)-1H-indol-2-yl)methyl)-1-methylazetidine-2-carboxamide] | 824 nM
Cc1cc(COc2cc3[nH]c(CNC(=O)CN(C)C)cc3cc2Cl)on1 [Compound 579, N-((5-chloro-6-((3-methylisoxazol-5-yl)methoxy)-1H-indol-2-yl)methyl)-2-(dimethylamino)acetamide] | 587 nM
CN(C)CC(=O)NCc1cc2cc(Cl)c(OCc3cscn3)cc2[nH]1 [Compound 580, N-((5-chloro-6-(thiazol-4-ylmethoxy)-1H-indol-2-yl)methyl)-2-(dimethylamino)acetamide] | 620 nM
CC1(C(=O)NCc2cc3cc(Cl)c(CCn4ccnn4)cc3[nH]2)CC1 [Compound 583, N-((6-(2-(1H-1,2,3-triazol-1-yl)ethyl)-5-chloro-1H-indol-2-yl)methyl)-1-methylcyclopropane-1-carboxamide] | 1520 nM
CC1(C(=O)NCc2cc3cc(Cl)c(CCn4ncnn4)cc3[nH]2)CC1 [Compound 584, N-((6-(2-(2H-tetrazol-2-yl)ethyl)-5-chloro-1H-indol-2-yl)methyl)-1-methylcyclopropane-1-carboxamide] | 889 nM
CC1(C(=O)NCc2cc3cc(Cl)c(CCn4cnnn4)cc3[nH]2)CC1 [Compound 585, N-((6-(2-(1H-tetrazol-1-yl)ethyl)-5-chloro-1H-indol-2-yl)methyl)-1-methylcyclopropane-1-carboxamide] | > 9230 nM
COc1cc2cc(CNC(=O)C3(C)CC3)[nH]c2cc1CCn1ccnn1 [Compound 588, N-((6-(2-(1H-1,2,3-triazol-1-yl)ethyl)-5-methoxy-1H-indol-2-yl)methyl)-1-methylcyclopropane-1-carboxamide] | 3670 nM
CC1(C(=O)NCc2cc3cc(Cl)c(CCn4ccnc4)cc3[nH]2)CC1 [Compound 589, N-((6-(2-(1H-imidazol-1-yl)ethyl)-5-chloro-1H-indol-2-yl)methyl)-1-methylcyclopropane-1-carboxamide] | 4760 nM
Cc1cc(CCc2cc3[nH]c(CNC(=O)C4(C)CC4)cc3cc2F)no1 [Compound 593, N-((5-fluoro-6-(2-(5-methylisoxazol-3-yl)ethyl)-1H-indol-2-yl)methyl)-1-methylcyclopropane-1-carboxamide] | 220 nM
O=C(NCc1cc2cc(Cl)c(CCc3ccon3)cc2[nH]1)N1CCC1 [Compound 595, N-((5-chloro-6-(2-(isoxazol-3-yl)ethyl)-1H-indol-2-yl)methyl)azetidine-1-carboxamide] | 240 nM
O=C(NCc1cc2cc(OC(F)(F)F)c(CCc3ccon3)cc2[nH]1)N1CCC1 [Compound 597, N-((6-(2-(isoxazol-3-yl)ethyl)-5-(trifluoromethoxy)-1H-indol-2-yl)methyl)azetidine-1-carboxamide] | 307 nM
O=C(NCc1cc2cc(OC(F)(F)F)c(CCc3ccon3)cc2[nH]1)N1CCCC1 [Compound 598, N-((6-(2-(isoxazol-3-yl)ethyl)-5-(trifluoromethoxy)-1H-indol-2-yl)methyl)pyrrolidine-1-carboxamide] | 358 nM
CC1(C(=O)NCc2cc3cc(OC(F)F)c(OCc4cscn4)cc3[nH]2)CC1 [Compound 604, N-((5-(difluoromethoxy)-6-(thiazol-4-ylmethoxy)-1H-indol-2-yl)methyl)-1-methylcyclopropane-1-carboxamide] | 391 nM
CC1(C(=O)NCc2cc3cc(OC(F)F)c(OCc4ccon4)cc3[nH]2)CC1 [Compound 605, N-((5-(difluoromethoxy)-6-(isoxazol-3-ylmethoxy)-1H-indol-2-yl)methyl)-1-methylcyclopropane-1-carboxamide] | 143 nM
Cc1cc(COc2cc3[nH]c(CNC(=O)C4(C)CC4)cc3cc2OC(F)F)on1 [Compound 606, N-((5-(difluoromethoxy)-6-((3-methylisoxazol-5-yl)methoxy)-1H-indol-2-yl)methyl)-1-methylcyclopropane-1-carboxamide] | 320 nM
CC1(C(=O)NCc2cc3cc(Cl)c(OCc4cc5ccccc5[nH]4)cc3[nH]2)CC1 [Compound 607, N-((6-((1H-indol-2-yl)methoxy)-5-chloro-1H-indol-2-yl)methyl)-1-methylcyclopropane-1-carboxamide] | > 6440 nM
CC1(C(=O)NCc2cc3cc(Cl)c(CNc4ccccn4)cc3[nH]2)CC1 [Compound 609, N-((5-chloro-6-((pyridin-2-ylamino)methyl)-1H-indol-2-yl)methyl)-1-methylcyclopropane-1-carboxamide] | 339 nM

The remaining lines, values ahead:

IC50 | SMILES
1440 nM | Cc1cc(COc2cc3[nH]c(CNC(=O)[C@@H]4CCCN4C)cc3cc2Cl)on1 [Compound 577, (S)-N-((5-chloro-6-((3-methylisoxazol-5-yl)methoxy)-1H-indol-2-yl)methyl)-1-methylpyrrolidine-2-carboxamide]
> 5550 nM | Cc1cc(COc2cc3[nH]c(CNC(=O)[C@H]4CCCN4C)cc3cc2Cl)on1 [Compound 578, (R)-N-((5-chloro-6-((3-methylisoxazol-5-yl)methoxy)-1H-indol-2-yl)methyl)-1-methylpyrrolidine-2-carboxamide]
455 nM | CC(=O)C(=O)NCc1cc2cc(Cl)c(OCc3cc(C)no3)cc2[nH]1 [Compound 582, N-((5-chloro-6-((3-methylisoxazol-5-yl)methoxy)-1H-indol-2-yl)methyl)-2-oxopropanamide]
176 nM | CC1(C(=O)NCc2cc3cc(Cl)c(CCn4nccn4)cc3[nH]2)CC1 [Compound 586, N-((6-(2-(2H-1,2,3-triazol-2-yl)ethyl)-5-chloro-1H-indol-2-yl)methyl)-1-methylcyclopropane-1-carboxamide]
260 nM | COc1cc2cc(CNC(=O)C3(C)CC3)[nH]c2cc1CCn1cccn1 [Compound 587, N-((6-(2-(1H-pyrazol-1-yl)ethyl)-5-methoxy-1H-indol-2-yl)methyl)-1-methylcyclopropane-1-carboxamide]
184 nM | COc1cc2cc(CNC(=O)C3(C)CC3)[nH]c2cc1CCn1nccn1 [Compound 591, N-((6-(2-(2H-1,2,3-triazol-2-yl)ethyl)-5-methoxy-1H-indol-2-yl)methyl)-1-methylcyclopropane-1-carboxamide]
120 nM | CC1(C(=O)NCc2cc3cc(F)c(CCc4cscn4)cc3[nH]2)CC1 [Compound 594, N-((5-fluoro-6-(2-(thiazol-4-yl)ethyl)-1H-indol-2-yl)methyl)-1-methylcyclopropane-1-carboxamide]
336 nM | O=C(NCc1cc2cc(OC(F)(F)F)c(CCc3cscn3)cc2[nH]1)N1CCC1 [Compound 596, N-((6-(2-(thiazol-4-yl)ethyl)-5-(trifluoromethoxy)-1H-indol-2-yl)methyl)azetidine-1-carboxamide]
163 nM | O=C(NCc1cc2cc(Cl)c(CCc3cscn3)cc2[nH]1)N1CCC1 [Compound 599, N-((5-chloro-6-(2-(thiazol-4-yl)ethyl)-1H-indol-2-yl)methyl)azetidine-1-carboxamide]
145 nM | O=C(NCc1cc2cc(F)c(CCc3cscn3)cc2[nH]1)N1CCC1 [Compound 600, N-((5-fluoro-6-(2-(thiazol-4-yl)ethyl)-1H-indol-2-yl)methyl)azetidine-1-carboxamide]
174 nM | O=C(NCc1cc2cc(F)c(CCc3cscn3)cc2[nH]1)N1CCCC1 [Compound 601, N-((5-fluoro-6-(2-(thiazol-4-yl)ethyl)-1H-indol-2-yl)methyl)pyrrolidine-1-carboxamide]
991 nM | CC1(C(=O)NCc2cc3cc(Cl)c(CNc4cccnc4)cc3[nH]2)CC1 [Compound 610, N-((5-chloro-6-((pyridin-3-ylamino)methyl)-1H-indol-2-yl)methyl)-1-methylcyclopropane-1-carboxamide]
842 nM | CC1(C(=O)NCc2cc3cc(F)c(CNc4ccon4)cc3[nH]2)CC1 [Compound 611, N-((5-fluoro-6-((isoxazol-3-ylamino)methyl)-1H-indol-2-yl)methyl)-1-methylcyclopropane-1-carboxamide]
